The structures appear in SMILES notation.

The series deals with Pimephales promelas. Put plainly: 96 h LC50 (-log10 mol/L); higher = more toxic.
On to `O=S(c1ccccc1)c1ccccc1`, for which the “96 h LC50 (-log10 mol/L)” value stood at 3.37.
Take `CC(C)(C)c1ccc(C(N)=O)cc1`: the “96 h LC50 (-log10 mol/L)” value was 3.75.
With `CC(Cl)(Cl)C(=O)O`, the “96 h LC50 (-log10 mol/L)” value came to 2.69.
Then `CCCCN(C=O)CCCC`, with 3.25; and `O=C(O)[C@@H]1[C@H](C(=O)O)[C@H]2CC[C@@H]1O2`, with 4.08; and `CC1=CCC(=C(C)C)CC1`, with 5.05.
To `CCCSSCCC` belongs 4.76; to `c1ccc2c(c1)CCO2`, 3.17; to `ClC1=C(Cl)[C@]2(Cl)[C@H]3[C@H]([C@@H]4C=C[C@H]3C4)[C@@]1(Cl)C2(Cl)Cl`, 7.09.
For `CCC(=O)c1ccc(N)cc1`, the “96 h LC50 (-log10 mol/L)” value was 3.01.
With `CC1=CC[C@@H]2C[C@H]1C2(C)C`, the “96 h LC50 (-log10 mol/L)” value was found to be 5.69.
Regarding `O=C(Nc1cccc(Cl)c1)c1cccc([N+](=O)[O-])c1O`, the “96 h LC50 (-log10 mol/L)” value turned out to be 6.08.
In the case of `Nc1ccc(Br)cn1`, the “96 h LC50 (-log10 mol/L)” value was determined as 2.99.
With `C=CCC1=C(C)[C@@H](OC(=O)[C@@H]2[C@@H](C=C(C)C)C2(C)C)CC1=O`, the “96 h LC50 (-log10 mol/L)” value is 6.67.
Then `CCCSCCC`, with 3.74.
With `Cc1cccnc1`, the “96 h LC50 (-log10 mol/L)” value came to 2.81.
Then `CC(C)Nc1nc(Cl)nc(NC2CC2)n1`, with 4.8; and `CC(Oc1cc(Cl)c(Cl)cc1Cl)C(=O)O` (stereo unspecified), with 4.2; and `COC(=O)c1ccc(O)cc1O`, with 3.6.
Then `CC(O)(c1ccc(Cl)cc1)c1ccc(Cl)cc1`, with 5.25; and `CCOC(=O)[C@H](O)[C@@H](O)C(=O)OCC`, with 2.5.
With `Cc1c(N)cccc1[N+](=O)[O-]`, the “96 h LC50 (-log10 mol/L)” value is 3.48.
Then `C1C2CC3CC1CC(C2)C3`, with 5.68; and `CCNCCO`, with 1.78; and `CCC(C)C=O` (stereo unspecified), with 3.94.
To `O=Cc1c(F)cccc1Cl` belongs 4.23; to `COP(O)(=S)OC`, 3.52.
On to `O=C(Oc1ccccc1)c1ccccc1C(=O)Oc1ccccc1`, for which the “96 h LC50 (-log10 mol/L)” value is 6.6.
As to `CC(C)(O)C(F)(F)C(F)F`, the “96 h LC50 (-log10 mol/L)” value stood at 2.44.
As for `C=C[C@@]1(C)CC[C@H]2C(=CC[C@@H]3[C@]2(C)CCC[C@@]3(C)C(=O)O)C1`, the “96 h LC50 (-log10 mol/L)” value came to 5.54.
Then `Cc1cc(O)c([N+](=O)[O-])cc1[N+](=O)[O-]`, with 4.79; and `Oc1ccc(Oc2ccc(O)cc2)cc1`, with 4.54; and `O=C(O)C(Cl)(Cl)Cl`, with 1.91.
As to `CCCCOc1ccccc1`, the “96 h LC50 (-log10 mol/L)” value turned out to be 4.42.
To `CC12CCC(C(Br)C1=O)C2(C)C` (stereo unspecified) belongs 3.53; to `ClCc1ccccc1`, 4.4.
To `Cc1cc(Cl)ccc1OCCCC(=O)O` belongs 4.26; to `Cc1c(Cl)cccc1NC=O`, 3.56.
Then `COc1cc(Cl)c(Cl)cc1O`, with 4.63; and `Nc1ccccc1C(=O)c1ccc(Cl)cc1`, with 5.04; and `C=C(C)C1CC=C(C)CC1` (stereo unspecified), with 2.15.
As to `C#CC(O)CCCCC` (stereo unspecified), the “96 h LC50 (-log10 mol/L)” value came out at 5.49.
To `O=S(=O)([O-])c1ccc[n+](Cc2ccccc2)c1` belongs 2.02.
For `O=[N+]([O-])c1ccc(O)cc1C(F)(F)F`, the “96 h LC50 (-log10 mol/L)” value came out at 4.51.
`CCNS(=O)(=O)C(F)(F)C(F)(F)C(F)(F)C(F)(F)C(F)(F)C(F)(F)C(F)(F)C(F)(F)F`: the “96 h LC50 (-log10 mol/L)” value was 6.45.
To `OCc1ccoc1` belongs 2.29; to `CCCCC(=O)CCCC`, 3.66; to `ClCCCCCl`, 3.39.
To `N#Cc1cccc(C(F)(F)F)c1` belongs 3.56; to `Cc1cc2cccc(C)c2cc1C`, 4.42; to `C#CC(O)(c1ccccc1)c1ccccc1`, 4.27.
To `Nc1ccc(F)c(C(F)(F)F)c1` belongs 3.77; to `N#Cc1ccccc1C(F)(F)F`, 3.61; to `O=C(O)c1c(F)cccc1F`, 3.36.
Turning to `Nc1ccc(-c2ccc(N)c(Cl)c2)cc1Cl`, the “96 h LC50 (-log10 mol/L)” value came out at 5.08.
On to `CC(C)(C)SC(C)(C)C`, for which the “96 h LC50 (-log10 mol/L)” value amounted to 3.7.
To `C=C(C)C(=C)C` belongs 4.08.
Consider `c1cc[n+]2c(c1)-c1cccc[n+]1CC2`, for which the “96 h LC50 (-log10 mol/L)” value was determined as 4.12.
Then `COc1ccc(OC)cc1`, with 3.07.
Then `BrCCCBr`, with 5.05.
Then `O[C@H]1C[C@@H]2CC[C@H]1C2`, with 2.69; and `CC(=O)/C=C/C1=C(C)CCCC1(C)C`, with 4.58.
On to `COc1cc(C=O)cc(Br)c1O`, for which the “96 h LC50 (-log10 mol/L)” value came to 3.59.
Then `O=Cc1cccc(C(F)(F)F)c1`, with 5.28.
Consider `Cc1ncc[nH]1`, for which the “96 h LC50 (-log10 mol/L)” value turned out to be 2.46.
Take `ClCCCCCCl`: the “96 h LC50 (-log10 mol/L)” value worked out at 3.75.

The record behind these values is EPA's aquatic toxicity sets.
